Assay results published in patent US20150202179A1, “FATTY ACID DERIVATIVES FOR USE IN A METHOD OF TREATING DEPRESSION AND ASSOCIATED CONDITIONS” (YISSUM RESEARCH DEVELOPMENT COMPANY OF THE HEBREW …, priority 2012, published 2015).

Experiment: Novelty Suppressed Feeding Test (NSFT), separated BALB/c mice
Format: in vivo
Conditions: compounds 1 mg/kg i.p., day 9
Experimental: (§1) Novelty suppressed feeding test (NSFT): After the last treatment injection, all food is removed from the cage for 24 hours (water available ad libitum). At the end of this time, the animal is introduced into a 50×50×20 (height) cm wooden arena the floor of which is marked with equal rectangles of 10×10 cm. A pellet of food is placed on an elevated surface in the center of the arena. The time elapsing from the introduction of the animal into the arena until it commences eating (latency to feed) is recorded. The animal is removed from the arena immediately after it begins to eat or after not doing so for 5 min. During the test, the number of lines crossed by the animal is counted as a measure of motor activity, and calibrated for 5 min if the animal started eating before that. After the test, the animal is immediately transferred to its home cage and left to consume a previously weighed amount of food for 10 minutes. On completion of this period the food is weighed again to calculate the home cage food consumption.
50, 2 month old female BALB/c mice, 10 mice per group, on ad libitum diet were separated (each mouse in a different cage) for 9 days (Separation Stress, a model for depression). On the 7, 8, 9, 34-40, days mice were administered with either vehicle or compounds x, 12 and 15 (1 mg/kg i.p.) or imipramine 10 mg/kg (antidepressant) i.p. and tested in Novel Suppressed Feeding Test on day 9.
as §1, with “FIGS. 9A-9C show the results of the NSFT. […]” for “Novelty suppressed feeding test (NSFT):”, “hours.” for “hours (water available ad libitum).”, “into” for “into a 50×50×20 (height) cm wooden arena”, “open field test.” for “floor of which is marked with equal rectangles of 10×10 cm.”, “to find” for “elapsing from”, “food was” for “introduction of the animal into the arena until it commences eating (latency to feed) is”

CCCCCCCC/C=C\CCCCCCCC(=O)N[C@H](CO)C(C)C [Compound 1, oleoyl-L-valinol amide]
food intake in NSFT (in relation to vehicle and more than imipramine 10 mg/kg): significantly enhanced food intake | motor activity in NSFT (resembled imipramine 10 mg/kg): enhanced motor activity
